Key:
[1] = DRUGMATRIX: Calcium Channel Type L, Benzothiazepine radioligand binding (ligand: [3H] Diltiazem); type: cell membranes, Rattus norvegicus, Wistar, Brain, Membrane; details: Not Active = under 50% inhibition at 10 µM
[2] = DRUGMATRIX: Tumor Necrosis Factor (TNF), Non-Selective radioligand binding (ligand: [125I] TNF-alpha); type: cell membranes, Membrane; details: u-937; Not Active = under 50% inhibition at 10 µM
Glycine receptor = Glycine receptor (Rattus norvegicus, UniProt P22771+P24524+P07727+P20781); type: cell membranes, Wistar, Spinal cord, Membrane; further: in other assays of this panel Not Active means under 50% inhibition at 10 µM
[3] = biological target: T1, 3-hydroxy-3-methylglutaryl-coenzyme A reductase (Homo sapiens, UniProt P04035); design: species or system Escherichia coli;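 further: enzyme inhibition assay of HMG-CoA reductase using radiolabeled [14C]HMG-CoA as substrate; in other assays of this panel Not Active means under 50% inhibition at 10 µM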
T1 sequence (P04035 whole entry): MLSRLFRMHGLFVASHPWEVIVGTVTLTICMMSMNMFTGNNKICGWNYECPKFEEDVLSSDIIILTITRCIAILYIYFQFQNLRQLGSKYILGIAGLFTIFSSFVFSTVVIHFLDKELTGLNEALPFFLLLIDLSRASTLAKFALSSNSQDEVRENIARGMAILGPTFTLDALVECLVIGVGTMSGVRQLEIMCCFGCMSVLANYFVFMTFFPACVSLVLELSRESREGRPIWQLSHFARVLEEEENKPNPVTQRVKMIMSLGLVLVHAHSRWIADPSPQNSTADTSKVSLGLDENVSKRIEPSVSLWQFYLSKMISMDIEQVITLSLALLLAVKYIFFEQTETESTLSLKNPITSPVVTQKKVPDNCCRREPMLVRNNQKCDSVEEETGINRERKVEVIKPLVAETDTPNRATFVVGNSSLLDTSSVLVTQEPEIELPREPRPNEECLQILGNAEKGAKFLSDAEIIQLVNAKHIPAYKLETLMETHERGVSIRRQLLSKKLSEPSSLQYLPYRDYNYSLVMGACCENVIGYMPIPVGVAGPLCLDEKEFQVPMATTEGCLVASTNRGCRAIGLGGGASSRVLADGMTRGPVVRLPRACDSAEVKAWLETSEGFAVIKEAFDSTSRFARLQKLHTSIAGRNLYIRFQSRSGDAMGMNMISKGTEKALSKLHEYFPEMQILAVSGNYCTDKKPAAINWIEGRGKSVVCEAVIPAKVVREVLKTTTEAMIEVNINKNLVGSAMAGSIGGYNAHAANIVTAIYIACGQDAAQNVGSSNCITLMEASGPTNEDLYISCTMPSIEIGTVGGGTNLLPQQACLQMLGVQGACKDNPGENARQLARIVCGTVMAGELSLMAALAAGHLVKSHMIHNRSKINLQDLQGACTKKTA

[4] = DRUGMATRIX: Leukotriene, BLT (LTB4) radioligand binding (ligand: [3H]LTB4); type: cell membranes, Membrane; details: u-937; Not Active = under 50% inhibition at 10 µM
Leukotriene C4 synthase = biological target: T2, Leukotriene C4 synthase (Cavia porcellus, UniProt A6XA80); type: tissue-based, Lung;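 further: enzyme inhibition assay of leukotriene C4 synthase, using LTA4 as the substrate; in other assays of this panel Not Active means under 50% inhibition at 10 µM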
T2 sequence (A6XA80 whole entry): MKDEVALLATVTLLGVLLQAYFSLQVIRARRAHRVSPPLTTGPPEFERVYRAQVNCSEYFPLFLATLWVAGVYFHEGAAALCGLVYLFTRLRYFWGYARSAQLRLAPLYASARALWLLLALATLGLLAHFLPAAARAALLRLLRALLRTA

[5] = biological target: T3, Neuropeptide Y receptor type 1 (Homo sapiens, UniProt P25929); type: cell membranes, Membrane; details: sk-n-mc; further: in other assays of this panel Not Active means under 50% inhibition at 10 µM
T3 sequence (P25929 whole entry): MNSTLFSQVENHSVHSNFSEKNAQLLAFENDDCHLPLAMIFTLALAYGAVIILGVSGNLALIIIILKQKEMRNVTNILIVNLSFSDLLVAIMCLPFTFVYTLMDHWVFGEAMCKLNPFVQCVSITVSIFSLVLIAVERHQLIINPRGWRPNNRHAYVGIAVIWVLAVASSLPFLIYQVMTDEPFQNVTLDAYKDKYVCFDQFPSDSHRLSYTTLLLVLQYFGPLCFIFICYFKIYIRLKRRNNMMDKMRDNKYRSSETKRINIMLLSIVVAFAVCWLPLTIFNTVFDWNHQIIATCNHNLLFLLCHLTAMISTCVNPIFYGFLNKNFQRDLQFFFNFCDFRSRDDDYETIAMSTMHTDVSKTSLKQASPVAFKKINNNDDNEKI

Cytochrome P450 3A4 = Cytochrome P450 3A4 (Homo sapiens, UniProt P08684); details: bti-tn-5b1-4; further: in other assays of this panel Not Active means under 50% inhibition at 10 µM
Cytochrome P450 3A4, sequence (P08684 whole entry): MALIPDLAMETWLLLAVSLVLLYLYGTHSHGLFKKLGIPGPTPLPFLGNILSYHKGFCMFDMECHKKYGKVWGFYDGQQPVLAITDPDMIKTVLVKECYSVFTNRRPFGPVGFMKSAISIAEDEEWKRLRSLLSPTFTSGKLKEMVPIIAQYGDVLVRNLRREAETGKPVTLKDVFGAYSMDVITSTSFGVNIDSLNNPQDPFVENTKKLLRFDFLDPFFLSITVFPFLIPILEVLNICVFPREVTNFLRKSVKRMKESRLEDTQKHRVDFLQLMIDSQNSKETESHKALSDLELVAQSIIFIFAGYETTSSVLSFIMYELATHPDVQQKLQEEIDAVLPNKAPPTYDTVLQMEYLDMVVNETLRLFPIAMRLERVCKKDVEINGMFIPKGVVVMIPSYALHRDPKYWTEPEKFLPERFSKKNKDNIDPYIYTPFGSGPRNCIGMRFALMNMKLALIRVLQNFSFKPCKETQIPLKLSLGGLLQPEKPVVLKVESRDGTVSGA

CC[C@H]1[C@@H]2C[C@H]3[C@@H]4N(C)c5ccccc5[C@]45C[C@@H]([C@@H]2[C@H]5O)N3[C@@H]1O [AJMALINE]
Not Active: IC50 [1] | Ki [1] | IC50 [2] | Ki [2] | IC50 (Glycine receptor) | IC50 [3] | IC50 [4] | Ki [4] | IC50 (Leukotriene C4 synthase) | IC50 [5] | IC50 (Cytochrome P450 3A4) | Ki (Cytochrome P450 3A4)

C[C@H]1[C@H](NC(=O)/C(=N\OC(C)(C)C(=O)O)c2csc(N)n2)C(=O)N1S(=O)(=O)O [AZTREONAM]
Not Active: IC50 [1] | Ki [1] | IC50 [2] | Ki [2] | IC50 (Glycine receptor) | IC50 [3] | IC50 [4] | Ki [4] | IC50 (Leukotriene C4 synthase) | IC50 [5] | IC50 (Cytochrome P450 3A4) | Ki (Cytochrome P450 3A4)

CO/N=C(\C(=O)N[C@@H]1C(=O)N2C(C(=O)O)=C(COC(C)=O)CS[C@H]12)c1csc(N)n1 [CEFOTAXIME]
Not Active: IC50 [1] | Ki [1] | IC50 [2] | Ki [2] | IC50 (Glycine receptor) | IC50 [3] | IC50 [4] | Ki [4] | IC50 (Leukotriene C4 synthase) | IC50 [5] | IC50 (Cytochrome P450 3A4) | Ki (Cytochrome P450 3A4)

CCN(C(C)=O)c1cccc(-c2ccnc3c(C#N)cnn23)c1 [ZALEPLON]
Not Active: IC50 [1] | Ki [1] | IC50 [2] | Ki [2] | IC50 (Glycine receptor) | IC50 [3] | IC50 [4] | Ki [4] | IC50 (Leukotriene C4 synthase) | IC50 [5] | IC50 (Cytochrome P450 3A4) | Ki (Cytochrome P450 3A4)

Nc1cc(-c2ccncc2)c[nH]c1=O [INAMRINONE]
Not Active: IC50 [1] | Ki [1] | IC50 [2] | Ki [2] | IC50 (Glycine receptor) | IC50 [3] | IC50 [4] | Ki [4] | IC50 (Leukotriene C4 synthase) | IC50 [5] | IC50 (Cytochrome P450 3A4) | Ki (Cytochrome P450 3A4)

NC(=O)c1cccc(N)c1 [3-AMINOBENZAMIDE]
Not Active: IC50 [1] | Ki [1] | IC50 [2] | Ki [2] | IC50 (Glycine receptor) | IC50 [3] | IC50 [4] | Ki [4] | IC50 (Leukotriene C4 synthase) | IC50 [5] | IC50 (Cytochrome P450 3A4) | Ki (Cytochrome P450 3A4)

NC(=O)c1cccnc1 [NIACINAMIDE]
Not Active: IC50 [1] | Ki [1] | IC50 [2] | Ki [2] | IC50 (Glycine receptor) | IC50 [3] | IC50 [4] | Ki [4] | IC50 (Leukotriene C4 synthase) | IC50 [5] | IC50 (Cytochrome P450 3A4) | Ki (Cytochrome P450 3A4)

CCC1=C(C)CN(C(=O)NCCc2ccc(S(=O)(=O)NC(=O)N[C@H]3CC[C@H](C)CC3)cc2)C1=O [GLIMEPIRIDE]
Not Active: IC50 [1] | Ki [1] | IC50 [2] | Ki [2] | IC50 (Glycine receptor) | IC50 [3] | IC50 [4] | Ki [4] | IC50 (Leukotriene C4 synthase) | IC50 [5] | IC50 (Cytochrome P450 3A4) | Ki (Cytochrome P450 3A4)

CC(C)NCC(O)c1ccccc1Cl (stereo not given) [CLORPRENALINE]
Not Active: IC50 [1] | Ki [1] | IC50 [2] | Ki [2] | IC50 (Glycine receptor) | IC50 [3] | IC50 [4] | Ki [4] | IC50 (Leukotriene C4 synthase) | IC50 [5] | IC50 (Cytochrome P450 3A4) | Ki (Cytochrome P450 3A4)

COc1cccc2c1C(=O)c1c(O)c3c(c(O)c1C2=O)C[C@@](O)(C(C)=O)C[C@@H]3O[C@H]1C[C@H](N)[C@H](O)[C@H](C)O1 [DAUNORUBICIN]
Not Active: IC50 [1] | Ki [1] | IC50 [2] | Ki [2] | IC50 (Glycine receptor) | IC50 [3] | IC50 [4] | Ki [4] | IC50 (Leukotriene C4 synthase) | IC50 [5] | IC50 (Cytochrome P450 3A4) | Ki (Cytochrome P450 3A4)

Source: ChEMBL document CHEMBL1909046, “DrugMatrix in vitro pharmacology data”
